The numbers were not newly measured in patent publication US10086032B2, “Method for preparing a Camellia nitidissima Chi lipid-lowering and hypoglycemic agent” (Shenzhen Violin Technology Co., Ltd., priority 2014, dated 2018), which cites them from elsewhere.

This data set deals with model rat with hyperlipidemia. The settings on record: high dose group; lovastatin 0.01 g/kg; 43 days intragastric gavage.

For `CC[C@H](C)C(=O)O[C@H]1C[C@@H](C)C=C2C=C[C@H](C)[C@H](CC[C@@H]3C[C@@H](O)CC(=O)O3)[C@H]21` [lovastatin], the “HDL-C content of serum” value is listed as “enhance HDL-C content of serum in model rat with hyperlipidemia”.
